experiment: Human HepG2 cell viability assay in 384 well format; type: toxicity, cell-based; parameters: dose 125 nL, time 70.5 hour; cytotoxicity at 70.5 h: concentration not given beside the values; conditions: HepG2 cells, read-out: Inhibition

Row | Structure (SMILES) | cytotoxicity at 70.5 h
1 | Cn1nc(COc2cncnc2)c2c1CCN(Cc1ccccn1)C2 | 6.46%
2 | Cc1nc(CN2CCCC(NCc3cnc(C(C)(C)C)s3)C2)no1 (configuration not stated) | 2.91%
3 | CC(C)(CO)NCc1nn(Cc2ccccc2)nc1-c1ccccc1 | 27.2%
4 | CC(Cn1ccnc1)NC(=O)NCCc1cccs1 (configuration not stated) | -11.6%
5 | CC(C)NC(=O)CCCn1cnc2ccccc2c1=O | 16.8%
6 | CC1(c2ccccc2)CCC(=O)N(CCN2CCOCC2)C1 (configuration not stated) | -5.69%
7 | Cc1cccc(N(C)S(=O)(=O)c2cc(C(=O)O)cs2)c1C | -5.76%
8 | CC(C)Cc1noc(CN(C)c2ncccn2)n1 | -3.77%
9 | CNc1ncc(CN2CCC(CCc3ccccc3)CC2)cn1 | -1.31%
10 | CC(C)N(CC(=O)Nc1cccc(C#N)c1)C1CC1 | -4.01%
11 | CCc1nccn1C1CCCN(C(=O)c2ccnc(C)n2)C1 (configuration not stated) | -7.48%
12 | Cc1cc2cc(C(=O)N[C@@H]3CC[C@@H](N4CCOCC4)[C@@H]3O)ccc2o1 | 24.8%
13 | O=C1OCCN1c1cccc(CNCc2cc(F)ccc2F)c1 | 22.6%
14 | Cc1nc(NC(=O)c2nn(-c3ccc(F)cc3C)cc2O)n[nH]1 | -14.6%
15 | NC(=O)CCn1cc(CNCc2csc(N)n2)c2ccccc21 | -2.33%
16 | CN(Cc1ccncc1)C(=O)c1ccc(F)c(NS(C)(=O)=O)c1 | -4.24%
17 | CC(C)c1ncncc1C(=O)N1CCN(Cc2ccccn2)CC1 | -7.1%
18 | CC(O)CCN(C)S(=O)(=O)Cc1ccc(Br)cc1 (configuration not stated) | 23.3%
19 | CN1CCOCC12CCN(c1nncs1)CC2 | -2.11%
20 | CC(C)NC(=O)C1(Cc2ccccc2-c2ccccc2)CCCNC1 (configuration not stated) | -1.97%
21 | CC(C)CCn1c(=O)n(CCn2cccc2)c2cc(C(=O)O)cnc21 | -7.02%
22 | CCOc1ccnc(N2CCN(Cc3ncccc3C)CC2)n1 | 3.5%
23 | CN(CCc1ccc(F)cc1)Cc1nc2c(cnn2C)c(=O)[nH]1 | 11.7%
24 | CCSc1nnc(N2CCN(c3ccccc3)CC2)s1 | 0.78%

Row | Structure (SMILES) | cytotoxicity at 70.5 h
25 | CNC(=O)c1ccc(OC2CCN(S(C)(=O)=O)CC2)c(Cl)c1 | 3.83%
26 | CCCN1CCC2(CC1)CN(C(=O)c1cccnc1)c1ccc(F)cc12 | -8.65%
27 | Cc1nn(C)c(C)c1CC(=O)N1CCc2nnc(N(C)C)cc2C1 | -5.78%
28 | O=C(Nc1ncn(Cc2cccc(Br)c2)n1)C1CCC1 | -13.9%
29 | O=C(Nc1ccccn1)c1nc(N2CCCC2)ncc1Cl | -6.57%
30 | COc1c(C2CCCN2C(=O)c2cnccn2)c(C)nn1C (configuration not stated) | 20.2%
31 | CC(C)(C)CC(=O)NCCn1nc(C2CCNC2)c2cccnc21 (configuration not stated) | -6.02%
32 | Cc1noc(C)c1C(=O)N1CCC2(CC1)c1nc[nH]c1CCN2C | -3.9%
33 | Cc1cc(C2CCC2)nc(N2CCC3(CCCNC3=O)C2)n1 (configuration not stated) | -18.8%
34 | CN1CCN(Cc2cnc3n2CCN(C(=O)N2CCCC2)C3)CC1 | -14.4%
35 | O=C(c1cnccn1)N1CCCC(Cc2cccc3ncccc23)C1 (configuration not stated) | -4.96%
36 | Cc1nn(C)c(N(C)C)c1CNCc1ccccc1Cn1cccn1 | -2.08%
37 | Cc1ccsc1CN1CCn2c(COc3cccnc3)cnc2C1C (configuration not stated) | -9.93%
38 | O=C(NCC1CCS(=O)(=O)C1)N(Cc1ccncc1)C1CC1 (configuration not stated) | -6.32%
39 | CCCS(=O)(=O)NC(C)C(=O)NCc1ccnc(N2CCCC2)c1 (configuration not stated) | -3.25%
40 | Cc1n[nH]c(=O)c2c(NC(=O)CN3CCOCC3C)oc(C)c12 (configuration not stated) | 4.42%
41 | CCC1CN(C(=O)c2cc(C(C)=O)c(C)[nH]c2=O)CCN1C(C)C (configuration not stated) | -9.37%
42 | CNCC(=O)NC1CC(C)(C)Cc2nc(C(C)(C)C)ncc21 (configuration not stated) | -18.9%
43 | CCCS(=O)(=O)N1C[C@@H]2CN(Cc3cnn(C)c3)CCO[C@@H]2C1 | -1.12%
44 | Cc1c(C2CCCN(C(=O)C3CC3)C2)n2c(nc1=O)CCC2 (configuration not stated) | -3.86%
45 | Cc1noc(C)c1CCC(=O)N1CCCCC1CNS(C)(=O)=O (configuration not stated) | -7.67%
46 | CCc1nsc(NC2CCCn3nc(COC)nc32)n1 (configuration not stated) | -3.94%
47 | COc1ccc2c(c1)OCC(CNC1CCc3nc(C)nn3C1)=C2 (configuration not stated) | -8.64%
48 | CC(c1cccc(O)c1)N(C)S(N)(=O)=O (configuration not stated) | 37%

Row | Structure (SMILES) | cytotoxicity at 70.5 h
49 | N#CCCN(Cc1ccco1)C(=O)CN1CCCC1c1cccs1 (configuration not stated) | 1.44%
50 | COCc1noc(CCNc2ncnc3c2CCNCC3)n1 | -8.6%
51 | Cc1nc(C)n(CC2CCCN(CCC(=O)NC3CCCC3)C2)n1 (configuration not stated) | 24.8%
52 | CN(C)C(=O)CNC(=O)c1cc2ccccc2nc1N1CCCC1 | -7.99%
53 | CCCOc1ccccc1CN[C@@H]1CCC[C@H]1Cc1cc(C)no1 | 23.6%
54 | CCC(C(=O)N(C)C)N1CCC(c2nccn2Cc2cscn2)CC1 (configuration not stated) | -10%
55 | Cc1nnc(CN2CCCC(CCc3ccccc3C(F)(F)F)C2)o1 (configuration not stated) | -7.48%
56 | CNC(=O)c1nc(Cn2ncc3ccccc3c2=O)no1 | -3.17%
57 | CCC(C)(CC(=O)OC)NCc1noc(C)n1 (configuration not stated) | 26.6%
58 | COC(=O)C1CN(CC(=O)Nc2cccc(OC)c2)c2ccccc21 (configuration not stated) | -9.39%
59 | O=C(CCc1cc(F)ccc1F)NS(=O)(=O)c1ccc2c(c1)OCCO2 | 0.522%
60 | Cc1ccccc1OC1CN(Cc2c(C)nc3ccccn23)C1 | 26.8%
61 | CN(Cc1ccncc1)C(=O)Nc1cnn(CC2CCCO2)c1 (configuration not stated) | -3.42%
62 | Cc1nc(C)n(CC2CN(Cc3cccc4ccccc34)CCO2)n1 (configuration not stated) | -11.6%
63 | OCCNc1cc(-c2ccccc2)ncn1 | -1.96%
64 | Cn1cnc2c(-c3cccnc3)nc(C3CCNCC3)cc21 | 15.6%
65 | COCCN1CCC2(CC1)COc1ccccc1S(=O)(=O)N(C)C2 | 2.33%
66 | Cc1cccc(N2CCC3(CCCN3Cc3cn(C)nc3C)CC2)n1 | -9.08%
67 | CCN(Cc1cnn(C)c1)S(=O)(=O)N1CCCC1c1ccco1 (configuration not stated) | 3.59%
68 | CCc1nc(CC(=O)N2CCC(C(=O)N3CCCCC3)CC2)cs1 | -4.54%
69 | O=C1CC2(CCCCN2C(=O)c2ccsc2)CN1CC1CC1 (configuration not stated) | 8.93%
70 | CCOc1ccc(CN2CCC(c3nc(C)cc(C)n3)C2)cc1CO (configuration not stated) | 2.12%
71 | COCCCNC(=O)c1ccccc1S(C)(=O)=O | -13.3%
72 | O=C(c1ccn(-c2ccccc2Cl)n1)N1CCCSCC1 | -3.62%

Row | Structure (SMILES) | cytotoxicity at 70.5 h
73 | CC(C(=O)NCc1ccc(N2CCCCCC2)nc1)n1cncn1 (configuration not stated) | 3.18%
74 | CC(C)c1ccc(OCC(=O)N(C)C)cc1 | -9.35%
75 | COc1cn(CC(N)=O)c(CSc2nc(C)cc(C)n2)cc1=O | 59.2%
76 | O=C1CCC2(CCCN(C(=O)c3ccoc3)C2)CN1Cc1ccncc1 (configuration not stated) | -16.8%
77 | CC(C)=CCN1CCC(c2nccn2Cc2cscn2)CC1 | -2.36%
78 | Cc1nn(C)c(N(C)C)c1CNC(C)COc1ccc(F)cc1 (configuration not stated) | -4.85%
79 | COC[C@@H]1CCC[C@]12CN(Cc1ccco1)CCO2 | -1.04%
80 | COc1cccc(CC2CCCN2CCCO)c1 (configuration not stated) | -2.11%
81 | CN(Cc1nc2c(cnn2C)c(=O)[nH]1)Cc1ccco1 | 7.12%
82 | CN1CCOC(CN(C(=O)CCc2cnn(C)c2)c2nccs2)C1 (configuration not stated) | -5.55%
83 | COCC(=O)N1CCC2(CCC2N(C)Cc2ccco2)CC1 (configuration not stated) | 3.06%
84 | CCN(C)C(=O)Nc1cc(F)c(OC)cc1F | 18.4%
85 | CC(Cn1cccn1)NC(=O)Nc1ccccn1 (configuration not stated) | -8.38%
86 | CCC(NC1Cc2ccccc2C1)c1ccc(S(C)(=O)=O)cc1 (configuration not stated) | -14.8%
87 | c1ccc(C(NCc2nnc(-c3ccco3)o2)C2CCC2)cc1 (configuration not stated) | -14.7%
88 | O=C(Nc1nc2c(s1)CCC2)NC1CCCC1 | -9.48%
89 | Cc1nnc(CN(C)CC2(O)CCCN(CCC3CCCCC3)C2=O)o1 (configuration not stated) | 2.51%
90 | Cc1cc(CN2CC[C@H]3C[C@H](c4nc(C5CC5)cs4)O[C@@H]3C2)no1 | -4.1%
91 | Cc1c2nnn(CC(=O)N(C)C)c(=O)c2nn1C | -8.25%
92 | CCOCC(=O)NCC(Cc1cccc(F)c1)N1CCCCC1=O (configuration not stated) | 30%
93 | Cc1cn2c(n1)CCC(NC(=O)c1[nH]nc(C)c1Br)C2 (configuration not stated) | 13.2%
94 | C[S+]([O-])c1nncn1CC(=O)c1ccc(Br)cc1 (configuration not stated) | -5.18%
95 | O=C(C1CCOC1)N1Cc2ccccc2OC2(CCOCC2)C1 (configuration not stated) | -2.81%
96 | O=c1cc(N2CCNCC2)cnn1Cc1noc(C2CCCC2)n1 | -23.8%

Row | Structure (SMILES) | cytotoxicity at 70.5 h
97 | CN1CCN(c2cc(CNCc3cccc4c3OCO4)ccn2)CC1 | -8.22%
98 | CC1COCCN1C(=O)c1ccc(=O)n(Cc2ccccc2)n1 (configuration not stated) | -4.29%
99 | O=c1[nH]c(=O)n(CC(O)c2ccc(F)cc2F)cc1Cl (configuration not stated) | 0.374%
100 | CN(C)C(=O)CN(C)C(=O)c1cccn1CCc1ccccc1 | -3.57%
101 | CCc1ncc(C(=O)N2CC(Oc3ccccc3Cl)C2)cn1 | 10.7%
102 | CN(C)c1ccc(NC(=O)NCc2ccc(Cl)s2)cn1 | -7.08%
103 | O=C1CC(NCc2ncc[nH]2)CN1CCc1cccc(Cl)c1 (configuration not stated) | -8.16%
104 | CCN(CC)C(=O)c1ccc(CNc2cncc(-n3cccn3)n2)cc1 | -7.26%
105 | O=C1N(c2ccsc2)CCC12CCCN(Cc1cccnc1)C2 (configuration not stated) | -7.79%
106 | NC(=O)C1Cn2ccnc2C2(CCN(C(=O)c3ccncc3)CC2)O1 (configuration not stated) | -4.78%
107 | CCCOc1cccc(C(=O)N2CCCC(n3cncn3)C2)c1 (configuration not stated) | -13.7%
108 | O=C(O)c1nnn(Cc2cccc(C(F)(F)F)c2)c1-c1ccncc1 | -8.89%
109 | COCCc1noc(CN(C)C(=O)C(C)N2CCc3ccccc3C2)n1 (configuration not stated) | -9.3%
110 | CN(C)c1ncccc1CNC(=O)NCC(c1cccs1)N(C)C (configuration not stated) | -23.8%
111 | Cc1cc(C)n(CC(=O)N2CCC(c3nc(C(C)C)no3)CC2)n1 | -7.07%
112 | CCCC(=O)N(CCCN1CCOCC1)c1nc2c(F)cccc2s1 | -1.9%
113 | Cc1nc(-c2cc(C(=O)NCC(C)(C)CO)c3ccccn23)cs1 | 5.35%
114 | Cn1c(C(=O)N2CCC(C3OCCO3)CC2)c(Cl)c2ccccc21 | -9.46%
115 | CS(=O)(=O)Cc1ccc(C(=O)NCC2Cc3ccccc3O2)cc1 (configuration not stated) | -0.3%
116 | Cc1c(CC(=O)N2CCN(C(C)C)CC2)nnn1-c1ccccc1 | 23.6%
117 | CN1CCO[C@@H]2CN(C(=O)NCc3ccccc3)CC[C@@H]2C1 | 9.51%

— ChEMBL document CHEMBL3507680, “University of Dundee, Gates Library screen for HepG2 cell viability”
